Measurements from US20250311722A1, “IMPROVED BIOCIDE” (Purgos ApS, priority 2022, published 2025).
Values joined by “and” are separate entries in the source; they are usually repeats but may differ in a detail not shown here. Identical values can stand only once.

Assays:
Type in all cases: cell-based
[1] = tested on: Debaryomyces hansenii ISI 12; assay: Minimum bactericidal concentration (MBC); parameters: MBC data (outgrowth): unit not given here
From the text: (§1) Even when no growth is detectable in the MIC tests, it is possible that the microorganisms have survived the treatment i.e., they are not killed but just prevented from growing. In order to test for survivors, MBC plates were subsequently made from the MIC plates.

[2] = tested on: Salmonella Infantis ISI 170; assay: Minimum bactericidal concentration (MBC); parameters: MBC data (outgrowth): unit not given here
From the text: as §1

[3] = tested on: Leuconostoc mesenteroides ISI 504; assay: Minimum bactericidal concentration (MBC); parameters: MBC data (outgrowth): unit not given here
From the text: as §1

[4] = tested on: Bacillus cereus ISI 842; assay: Minimum bactericidal concentration (MBC); parameters: MBC data (outgrowth): unit not given here
From the text: as §1

[5] = tested on: Streptococcus termophilus ISI 1563; assay: Minimum bactericidal concentration (MBC); parameters: MBC data (outgrowth): unit not given here
From the text: as §1

[6] = tested on: Pseudomonas aeruginosa ISI 1462; assay: Minimum bactericidal concentration (MBC); parameters: MBC data (outgrowth): unit not given here
From the text: as §1

[7] = tested on: Lactobacillus brevis ISI 2269; assay: Minimum bactericidal concentration (MBC); parameters: MBC data (outgrowth): unit not given here
From the text: as §1

[8] = tested on: Listeria monocytogenes ISI 22; assay: Minimum bactericidal concentration (MBC); parameters: MBC data (outgrowth): unit not given here
From the text: as §1

[9] = tested on: Escherichia coli, ATCC 10536; assay: EN 1276 quantitative suspension test, bactericidal activity
Procedure: (§2) The test was carried out according to EN 1276, 2019: Chemical disinfectants and antiseptics-Quantitative suspension test for the evaluation of bactericidal activity of chemical disinfectants and antiseptics used in food, industrial, domestic, and institutional areas-Test method and requirements. […] The growth media TSB (Tryptic Soy Broth) was separately inoculated with a culture loop of the microorganisms. The cultures were incubated at 37° C. for 24 hours. Bovine Serum Albumin with a final concentration of 3 g/L Polysorbate 80 with a concentration of 30 g/L The used method was Dilution-neutralization method. 1 mL of interfering substance was pipetted into a tube and 1 mL of the test suspension was added and mixed. […] The solution was incubated at 20° C. for 5 min. and 60 min. respectively. […] After 5 min. of neutralization time 100 μL of the mixture was added to a petri-dish containing TSA media. Another 100 μL was added to a tube containing 900 μL 0.9% NaCl and a serial dilution to 10^-5 was made. The mixtures added to the agar plates were evenly distributed with a Drigalski-spatula. The agar plates were incubated at 37° C. for 24 hours. After incubation, the number of surviving bacteria (CFU) was counted. The test was performed in 3 replicates.

[10] = tested on: Pseudomonas aeruginosa, ATCC 15442; assay: as above
Procedure: as §2

[11] = tested on: Staphylococcus aureus, ATCC 6538; assay: as above; conditions: all tested contact times (5, 60 min) and concentrations (1.5%, 3%, 6%)
Procedure: as §2

[12] = tested on: Murine norovirus; assay: ASTM E1052 Kill Time Screen test, antiviral activity

CCCCN(CCO)CCO [NBDA, N-butyldiethanolamine]
MBC (%) [1]: 2.5% | MBC data (outgrowth) ([1]; 0.02% NBDA): 1.491 and 1.495 | MBC data (outgrowth) ([1]; 0.04% NBDA): 1.493 and 1.461 | MBC data (outgrowth) ([1]; 0.08% NBDA): 1.472 | MBC data (outgrowth) ([1]; 0.16% NBDA): 1.473 and 1.469 | MBC data (outgrowth) ([1]; 0.31% NBDA): 1.432 and 1.393 | MBC data (outgrowth) ([1]; 0.63% NBDA): 1.387 and 1.458 | MBC data (outgrowth) ([1]; 1.25% NBDA): 1.333 and 1.309 | MBC data (outgrowth) ([1]; 2.50% NBDA): 0.074 | MBC data (outgrowth) ([1]; 5.00% NBDA): 0.068 and 0.069 | MBC (%) [2]: 1.25% | MBC data (outgrowth) ([2]; 0.02% NBDA): 1.732 and 1.806 | MBC data (outgrowth) ([2]; 0.04% NBDA): 1.858 and 1.853 | MBC data (outgrowth) ([2]; 0.08% NBDA): 1.841 and 1.791 | MBC data (outgrowth) ([2]; 0.16% NBDA): 1.826 and 1.827 | MBC data (outgrowth) ([2]; 0.31% NBDA): 1.786 and 1.488 | MBC data (outgrowth) ([2]; 0.63% NBDA): 1.806 and 1.787 | MBC data (outgrowth) ([2]; 1.25% NBDA): 0.074 and 0.071 | MBC data (outgrowth) ([2]; 2.50% NBDA): 0.068 and 0.070 | MBC data (outgrowth) ([2]; 5.00% NBDA): 0.066 and 0.060 | MBC (%) [3]: 0.63% | MBC data (outgrowth) ([3]; 0.02% NBDA): 1.449 and 1.467 | MBC data (outgrowth) ([3]; 0.04% NBDA): 1.449 and 1.468 | MBC data (outgrowth) ([3]; 0.08% NBDA): 1.413 and 1.467 | MBC data (outgrowth) ([3]; 0.16% NBDA): 1.337 and 1.425 | MBC data (outgrowth) ([3]; 0.31% NBDA): 1.452 and 1.448 | MBC data (outgrowth) ([3]; 1.25% NBDA): 0.075 | MBC data (outgrowth) ([3]; 2.50% NBDA): 0.076 and 0.077 | MBC data (outgrowth) ([3]; 5.00% NBDA): 0.066 and 0.067 | MBC (%) [4]: 1.25% | MBC data (outgrowth) ([4]; 0.02% NBDA): 1.261 and 1.253 | MBC data (outgrowth) ([4]; 0.04% NBDA): 1.106 and 1.352 | MBC data (outgrowth) ([4]; 0.08% NBDA): 1.098 and 1.118 | MBC data (outgrowth) ([4]; 0.16% NBDA): 1.286 and 1.086 | MBC data (outgrowth) ([4]; 0.31% NBDA): 1.277 and 1.161 | MBC data (outgrowth) ([4]; 0.63% NBDA): 1.117 and 1.001 | MBC data (outgrowth) ([4]; 1.25% NBDA): 0.075 and 0.076 | MBC data (outgrowth) ([4]; 2.50% NBDA): 0.072 and 0.078 | MBC data (outgrowth) ([4]; 5.00% NBDA): 0.066 | MBC (%) [5]: 1.25% | MBC data (outgrowth) ([5]; 0.02% NBDA): 0.346 and 0.323 | MBC data (outgrowth) ([5]; 0.04% NBDA): 0.307 and 0.283 | MBC data (outgrowth) ([5]; 0.08% NBDA): 0.311 and 0.304 | MBC data (outgrowth) ([5]; 0.16% NBDA): 0.251 and 0.232 | MBC data (outgrowth) ([5]; 0.31% NBDA): 0.802 and 0.522 | MBC data (outgrowth) ([5]; 0.63% NBDA): 0.277 and 0.427 | MBC data (outgrowth) ([5]; 1.25% NBDA): 0.072 | MBC data (outgrowth) ([5]; 2.50% NBDA): 0.070 and 0.068 | MBC data (outgrowth) ([5]; 5.00% NBDA): 0.062 and 0.058 | MBC (%) [6]: 1.25% | MBC data (outgrowth) ([6]; 0.02% NBDA): 1.360 and 2.248 | MBC data (outgrowth) ([6]; 0.04% NBDA): 2.186 and 1.311 | MBC data (outgrowth) ([6]; 0.08% NBDA): 1.779 and 2.051 | MBC data (outgrowth) ([6]; 0.16% NBDA): 1.680 and 2.303 | MBC data (outgrowth) ([6]; 0.31% NBDA): 1.477 and 1.570 | MBC data (outgrowth) ([6]; 0.63% NBDA): 1.909 and 1.789 | MBC data (outgrowth) ([6]; 1.25% NBDA): 0.071 and 0.070 | MBC data (outgrowth) ([6]; 2.50% NBDA): 0.071 and 0.069 | MBC data (outgrowth) ([6]; 5.00% NBDA): 0.066 and 0.061 | MBC (%) [7]: 0.31% | MBC data (outgrowth) ([7]; 0.02% NBDA): 0.446 and 0.463 | MBC data (outgrowth) ([7]; 0.04% NBDA): 0.439 and 0.455 | MBC data (outgrowth) ([7]; 0.08% NBDA): 0.447 and 0.470 | MBC data (outgrowth) ([7]; 0.16% NBDA): 0.755 and 1.060 | MBC data (outgrowth) ([7]; 0.31% NBDA): 0.078 and 0.077 | MBC data (outgrowth) ([7]; 0.63% NBDA): 0.208 and 0.248 | MBC data (outgrowth) ([7]; 1.25% NBDA): 0.077 | MBC data (outgrowth) ([7]; 2.50% NBDA): 0.075 and 0.077 | MBC data (outgrowth) ([7]; 5.00% NBDA): 0.067 and 0.068 | MBC (%) [8]: 2.5% | MBC data (outgrowth) ([8]; 0.02% NBDA): 1.197 and 1.009 | MBC data (outgrowth) ([8]; 0.04% NBDA): 1.195 and 1.097 | MBC data (outgrowth) ([8]; 0.08% NBDA): 1.201 and 1.059 | MBC data (outgrowth) ([8]; 0.16% NBDA): 1.216 and 1.141 | MBC data (outgrowth) ([8]; 0.31% NBDA): 1.320 and 1.310 | MBC data (outgrowth) ([8]; 0.63% NBDA): 1.496 and 1.507 | MBC data (outgrowth) ([8]; 1.25% NBDA): 1.517 and 1.533 | MBC data (outgrowth) ([8]; 2.50% NBDA): 0.065 and 0.070 | MBC data (outgrowth) ([8]; 5.00% NBDA): 0.060 and 0.062 | CFU/plate ([9]; 1.5%, contact time 5 min): >165 CFU/plate | log10 reduction ([9]; 1.5%, contact time 5 min): <5 log10 | CFU/plate ([9]; 1.5%, contact time 60 min): >165 CFU/plate | log10 reduction ([9]; 1.5%, contact time 60 min): <5 log10 | CFU/plate ([9]; 3.0%, contact time 5 min): >165 CFU/plate | log10 reduction ([9]; 3.0%, contact time 5 min): <5 log10 | CFU/plate ([9]; 3.0%, contact time 60 min): >165 CFU/plate | log10 reduction ([9]; 3.0%, contact time 60 min): <5 log10 | CFU/plate ([9]; 6.0%, contact time 5 min): >165 CFU/plate | log10 reduction ([9]; 6.0%, contact time 5 min): <5 log10 | CFU/plate ([9]; 6.0%, contact time 60 min): 25 CFU/plate and 29 CFU/plate and 30 CFU/plate | CFU/plate ([10]; 1.5%, contact time 5 min): >165 CFU/plate | log10 reduction ([10]; 1.5%, contact time 5 min): <5 log10 | CFU/plate ([10]; 1.5%, contact time 60 min): >165 CFU/plate | log10 reduction ([10]; 1.5%, contact time 60 min): <5 log10 | CFU/plate ([10]; 3.0%, contact time 5 min): >165 CFU/plate | log10 reduction ([10]; 3.0%, contact time 5 min): <5 log10 | CFU/plate ([10]; 3.0%, contact time 60 min): >165 CFU/plate | log10 reduction ([10]; 3.0%, contact time 60 min): <5 log10 | CFU/plate ([10]; 6.0%, contact time 5 min): >165 CFU/plate | log10 reduction ([10]; 6.0%, contact time 5 min): <5 log10 | CFU/plate ([10]; 6.0%, contact time 60 min): 25 CFU/plate and 22 CFU/plate and 35 CFU/plate | log changes of CFU [11]: lower than 5 log units | Mean log reduction after 60 seconds ([12]; 1.0% NBDA): 0.34 | Mean log reduction after 60 seconds ([12]; 5.0% NBDA): 0.34 | Norovirus eliminated (destroyed) in 60 seconds ([12]; from log reduction 0.34): 54%
